Results reported in patent publication US4977173A, “Aminomethyl oxooxazolidinyl ethenylbenzene derivatives useful as antibacterial agents” (E. I. Du Pont de Nemours and Company, priority 1989, dated 1990).
Converted amounts (≈) assume the structure as drawn. Where two headings read alike, the source gives them in different places.

Key:
[1] = tested on: Staphylococcus aureus; experiment: In vitro broth microdilution minimal inhibitory concentration (24-hour MIC), Staphylococcus aureus; assay type: cell-based; details: Mueller-Hinton broth, standard microdilution; for MIC: read-out: Minimum Inhibitory Concentration
From the text: (§1) As shown in Table VII compounds of formula I exert an in vitro antibacterial effect.

[2] = tested on: Escherichia coli; experiment: In vitro broth microdilution minimal inhibitory concentration (24-hour MIC), Escherichia coli; assay type: cell-based; details: Mueller-Hinton broth, standard microdilution; for MIC: read-out: Minimum Inhibitory Concentration
From the text: as §1

[3] = tested on: Staphylococcus aureus; experiment: In vivo activity against Staphylococcus aureus in an acute lethal mouse model; details: mice infected intraperitoneally, dosed one and four hours post-infection, survival on seventh day
Method: Determinations of in vivo efficacy are performed by inoculating mice intraperitoneally with cultures of the infecting organism diluted to produce 100% mortality in control animals within twenty-four hours. The culture of S. aureus used to infect the animals was diluted to the required bacterial density using 5% aqueous hog gastric mucin. The compounds are dissolved or suspended in 0.25% aqueous Methocel® (Methocel®: Hydroxypropyl Methylcellulose, E15 Premium, Dow Chemical Company) for oral administration or sterile distilled water containing 5% dimethylsulfoxide (Fisher Scientific Company, Fairlawn, N.J.) for subcutaneous administration. The mice are dosed at one hour and at four hours post-infection. Mortality is recorded daily until test termination seven days post infection. The number of survivors in each treatment group on the seventh day after infection is used in the calculation of the ED50, the dose of compound that protects 50% of the mice (Litchfield, J. T. and Wildoxon. A simplified method for evaluating dose-effect experiments. J. Pharmacol Exp. Ther., 96:99-113, 1949).

[4] = Staphylococcus aureus, 168 h, Oral Administration, read-out: ED50
[5] = Staphylococcus aureus, sc, 168 h, Subcutaneous Administration, read-out: ED50
[6] = Subcutaneous Administration, 10080 min

SMILES	MIC [1] [µg/mL]	MIC [2] [µg/mL]	ED50 [3, 4] [mg/kg]	ED50 [3, 5] [mg/kg]	Minimum Inhibitory Concentration [1] [µg/mL]	Minimum Inhibitory Concentration [2] [µg/mL]	ED50 ([3]; Oral Administration, 10080 min) [mg/kg]	ED50 [3, 6] [mg/kg]
CC(=O)NCC1CN(c2ccc(/C(=C/C#N)c3ccccc3)cc2)C(=O)O1 (racemic) [Example 5]	32 (≈ 88.5 µM)	> 128	> 90	> 90	–	–	–	–
CC(=O)NC[C@H]1CN(c2ccc(/C(C)=C/C#N)cc2)C(=O)O1 [Example 1, (l)-N-[3-[4-(E-1-Methyl-2-cyanoethenyl)phenyl]-2-oxooxazolidin-5-ylmethyl]acetamide]	1 (≈ 3.34 µM)	> 128	1.3	0.8	–	–	–	–
CC(=O)NC[C@H]1CN(c2ccc(/C=C/C#N)cc2)C(=O)O1 [Example 2, (l)-N-[3-[4-(E-2-Cyanoethenyl)phenyl]-2-oxooxazolidin-5-ylmethyl]acetamide]	4 (≈ 14 µM)	> 128	3.5	2.8	–	–	–	–
CC(=O)NC[C@H]1CN(c2ccc(/C(C)=C/C#N)c(C)c2)C(=O)O1 [Example 3]	2 (≈ 6.38 µM)	> 128	6.4	5.1	–	–	–	–
CC(=O)NC[C@H]1CN(c2ccc(/C(=C/C#N)c3ccc(F)cc3)cc2)C(=O)O1 [Example 6]	> 128	> 128	–	–	–	–	–	–
CC/C(=C\C#N)c1ccc(N2C[C@H](CNC(C)=O)OC2=O)cc1 [Example 7]	1 (≈ 3.19 µM)	> 128	3.1	2.1	–	–	–	–
CCC/C(=C\C#N)c1ccc(N2C[C@H](CNC(C)=O)OC2=O)cc1 [Example 8]	2 (≈ 6.11 µM)	> 128	> 90	> 90	–	–	–	–
CC(=O)NC[C@H]1CN(c2ccc(/C(C)=C(\C)C#N)cc2)C(=O)O1 [Example 9]	2 (≈ 6.38 µM)	> 128	3.8	2.5	–	–	–	–
CC(=O)NC[C@H]1CN(c2ccc(/C(C)=C(/C)C#N)cc2)C(=O)O1 [Example 11]	8 (≈ 25.5 µM)	> 128	–	–	–	–	–	–
CC(=O)NC[C@H]1CN(c2ccc(/C=C(\C)C#N)cc2)C(=O)O1 [Example 12]	1 (≈ 3.34 µM)	> 128	2.9	1.9	–	–	–	–
CC(=O)NC[C@H]1CN(c2ccc(/C(C)=C\C#N)cc2)C(=O)O1 [Example 13]	8 (≈ 26.7 µM)	> 128	–	–	–	–	–	–
CC(=O)NC[C@H]1CN(c2ccc(/C=C/[N+](=O)[O-])cc2)C(=O)O1 [Example 19, (l)-N-[3-[4-(E-Nitroethenyl)phenyl]-2-oxooxazolidin-5-ylmethyl]acetamide]	8 (≈ 26.2 µM)	> 128	> 90	> 90	–	–	–	–
CC(=O)NC[C@H]1CN(c2ccc(/C=C(\C)[N+](=O)[O-])cc2)C(=O)O1 [Example 20, (l)-N-[3-[4-(E-2-Nitro-2-methylethenyl)phenyl]-2-oxooxazolidin-5-ylmethyl]acetamide]	0.1 (≈ 0.313 µM)	> 128	14.1	9.1	–	–	–	–
CSC(C#N)=Cc1ccc(N2CC(CNC(C)=O)OC2=O)cc1 (centres unmarked) [Example 21, (l)-N-[3-(4-(2-Cyano-2-methylsulfenylethenyl)phenyl]-2-oxooxazolidin-5-ylmethyl]acetamide]	–	–	–	–	4	> 128	> 90	11.8
CCOC(=O)/C=C/c1ccc(N2C[C@H](CNC(C)=O)OC2=O)cc1 [Example 22, (l)-N-[3-[4-(E-2-Carboethoxyethenyl)-phenyl]-2-oxooxazolidin-5-ylmethyl]acetamide]	8 (≈ 24.1 µM)	> 128	> 90	> 90	–	–	–	–
CC(=O)NC[C@H]1CN(c2ccc(/C(C)=C/C(N)=O)cc2)C(=O)O1 [Example 23, (l)-N-[3-[4-(E-1-Methyl-2-carbamidoethenyl)phenyl]-2-oxooxazolidin-5-ylmethyl]acetamide]	4 (≈ 12.6 µM)	> 128	26.4	36.2	–	–	–	–
CSC=Cc1ccc(N2CC(CNC(C)=O)OC2=O)cc1 (centres unmarked) [Example 24, (l)-N-[3-[4-(2-Methylsulfenylethenyl)-phenyl]-2-oxooxazolidin-5-ylmethyl]acetamide]	–	–	–	–	8	> 128	33.3	14.6
CC(=O)NC[C@H]1CN(c2ccc(/C=C/C=O)cc2)C(=O)O1 [Example 25, (l)-N-[3-[4-(E-2-Formylethenyl)phenyl]-2-oxooxazolidin-5-ylmethyl]acetamide]	0.5 (≈ 1.73 µM)	> 128	> 80	> 80	–	–	–	–
CC(=O)NC[C@H]1CN(c2ccc(C=C(C#N)C#N)cc2)C(=O)O1 [Example 26]	16 (≈ 51.6 µM)	> 128	> 90	> 90	–	–	–	–
CC(=O)NC[C@H]1CN(c2ccc(C=C(C(C)=O)C(C)=O)cc2)C(=O)O1 [Example 28]	16 (≈ 46.5 µM)	> 128	> 90	> 90	–	–	–	–
CC/C(=C\c1ccc(N2C[C@H](CNC(C)=O)OC2=O)cc1)[N+](=O)[O-] [Example 29]	1 (≈ 3 µM)	> 128	> 90	> 90	–	–	–	–
CCC/C(=C\c1ccc(N2C[C@H](CNC(C)=O)OC2=O)cc1)[N+](=O)[O-] [Example 30]	4 (≈ 11.5 µM)	> 128	> 90	> 90	–	–	–	–
COC(=O)/C=C(\C)c1ccc(N2C[C@H](CNC(C)=O)OC2=O)cc1 [Example 58, (l)-N-[3-[4-(E-1-Methyl-2-carbomethoxyethenyl)phenyl]-2-oxooxazolidin-5-ylmethyl]acetamide]	2 (≈ 6.02 µM)	> 128	–	46.2	–	–	–	–
COC(=O)/C=C/c1ccc(N2C[C@H](CNC(C)=O)OC2=O)cc1 [Example 59]	8 (≈ 25.1 µM)	> 128	–	> 90	–	–	–	–
CC(=O)/C=C/c1ccc(N2C[C@H](CNC(C)=O)OC2=O)cc1 [Example 60]	4 (≈ 13.2 µM)	> 128	–	51.9	–	–	–	–
CC(=O)NC[C@H]1CN(c2ccc(/C=C/C(=O)N(C)C)cc2)C(=O)O1 [Example 61]	32 (≈ 96.6 µM)	> 128	–	39.5	–	–	–	–
CC(=O)NC[C@H]1CN(c2ccc(/C=C/C(N)=O)cc2)C(=O)O1 [Example 62]	32 (≈ 105 µM)	> 128	–	20.4	–	–	–	–
CC(=O)NC[C@H]1CN(c2ccc(C3=CC(=O)CCC3)cc2)C(=O)O1 [Example 68]	0.5 (≈ 1.52 µM)	> 128	2.4	1.7	–	–	–	–
